According to paper PMC7357169, “Blinded, Multicenter Evaluation of Drug-induced Changes in Contractility Using Human-induced Pluripotent Stem Cell-derived Cardiomyocytes” (Toxicological Sciences, 2020):
Entries after “also recorded” stand apart in the source; their conditions may differ.

Experiments:
R-PAT hiPSC-CM EHTs = test: Engineered heart tissue (EHT) contractility, R-PAT hiPSC-CMs; format: cell-based, human
Excerpt: (§1) To generate EHTs, in-house hiPSC lines, R-PAT, and ERC18, were differentiated using 2D-monolayer- (R-PAT) or 3D-embryoid body- (ERC18) protocol and fabricated as recently described ([Breckwoldt et al., 2017]; [Mosqueira et al., 2018]). In brief, casting molds were generated in 24-well plates with 2% agarose (Invitrogen, 15510-019) and Polytetrafluorethylene (PTFE) spacers (EHT Technologies, C0002). PDMS racks (EHT Technologies, C0001) were placed in the 24-well plates so that pairs of PDMS posts reached into each agarose casting mold. A reconstitution mix was prepared consisting of: 1 × 10^6 hiPSC-CM; 81.9 µl cardiomyocyte medium; 10 µl Matrigel basement membrane matrix (BD 354234); 5.5 µl 2 × DMEM; 0.1 µl Y-27632 (10 mM; Biorbyt orb60104); 2.5 µl bovine fibrinogen (5 mg/ml; Sigma F4753). Reconstitution mix (97 µl) was mixed with prealiquoted 3 µl thrombin (100 U/ml; Biopur BP11-10-1104) and pipetted into the agarose casting mold. GCAMP6f-lentiviral particles (multiplicity of infection: 0.3, functional titer) were included in the EHT reconstitution mix for Ca^2+ transient analysis. EHTs started to beat coherently after 10–14 days and were analyzed for contraction and Ca^2+ transient at ≥ 20 days.
(§2) EHTs were transferred from culture medium into preequilibrated (37°C, 40% O2, 7% CO2), modified Tyrode’s solution (in mM, 120 NaCl; 22.6 NaHCO3; 5.4 KCl; 5 glucose; 1 MgCl2; 0.4 NaH2PO4; 0.6–1 CaCl2; 0.05 Na2EDTA; 25 HEPES) for R-PAT and into DMEM (Gibco 21068028; in mM, 110 NaCl; 44 NaHCO3; 5 KCl; 25 glucose; 0.8 MgSO4; 0.9 NaH2PO4, 0.6–1 CaCl2; 25 HEPES, and vitamins and amino acids) for ERC18 EHTs 40 min before analysis to equilibrate to the testing medium. After equilibration, the cumulative concentration response curve was started with baseline recording in preequilibrated medium with Ca^2+ concentration of 0.6–1 mM.
(§3) Contractility analysis was via automated video-optical contractility analysis was performed in 24-well cell culture plates (Nunc, 122475) ([Breckwoldt et al., 2017]). Video files of EHT contractions were analyzed by automated EHT figure recognition software (EHT Technologies, A0001). Top and bottom ends of EHT contour were identified and followed during the course of recording. Force was calculated based on shortening during contraction, elastic propensity, and geometry of PDMS posts.
(§4) Data were normalized to a pool of time-matched controls (contractility analysis, ERC18: n = 22 EHTs/7.0 experiments; R-PAT: 16 EHTs/5.0 experiments; combined contractility- and Ca^2+ transient-analysis: 21 EHTs/8.0 experiments) used for all contractility/combined contractility- and Ca^2+ transient-measurements. Data are plotted as relative change to the mean baseline, normalized to pool time control. Statistical significance was evaluated by GraphPad Software, 1-way ANOVA with Dunnett’s multiple comparisons test versus baseline.

cardiac contractility = conditions: cited from earlier work; for EC50: read-out: Expected effect on contractility in isolated cardiomyocytes/heart muscles, EC50
heart = system: heart; design: method as in Refs column of Supplementary Table 1; conditions: Refs of Supplementary Table 1; cited from earlier work
[1] = cited from earlier work; for FTPC: free therapeutic plasma concentration, Refs of Supplementary Table 1; for FPTC (free plasma therapeutic concentration): ref Supplementary Table 1
hiPSC-CMs = test: CellOPTIQ voltage (FluoVolt) analysis, hiPSC-CMs; format: cell-based, human
Method: hiPSC-CMs in 96-well plate were transiently loaded in 50 µl/well of SFM containing FluoVolt (1:200 part B, 1:2000 part A; Life Tech, F10488) for 20 min at 37°C and 5% CO2. After incubation, the medium was replaced with 200 μl/well of SFM. Plates were then incubated at 37°C and 5% CO2 for 15 min before recording, which were made using a ×40 (NAO.6) objective at 10 KHz. […] Electrophysiology data were analyzed using CellOPTIQ proprietary software of Clyde Biosciences and were normalized to a maximum amplitude of 1 and minimum of 0 to standardize height for comparison of traces created in OriginPro (OriginLab version 7.5). Contractility data were analyzed based on pixel displacement using an ImageJ plug-in. […]
Action potential duration (APD30, APD90) and triangulation (APD90–APD30) were calculated from voltage waveforms to determine whether electrophysiology was altered, including the appearance of arrhythmias. For Ca^2+ handling, amplitude, time to peak, and decay time were assessed, whereas similar parameters (contraction amplitude [CA], contraction time [CT], and relaxation time [RT]) were derived for contraction (Supplementary Figure 2). […]

ERC18 hiPSC-CM EHTs [2] = conditions: EHT:ERC
Method: For long-term contractility analysis of sunitinib, hiPSC-CM EHTs were equilibrated to regular cell culture medium without serum (DMEM, Biochrom F0415; penicillin/streptomycin 1% [volume/volume], Gibco 15140; aprotinin 5 µM, Sigma-Aldrich A1153; insulin 1.7 µM, Sigma-Aldrich I9278; glutamine 2000 µM, Gibco 25030-081; triiodothyronine 0.77 nM, European Commission-Joint Research Center IRMM-469; hydrocortisone 137 µM: Sigma-Aldrich H0888). Medium change, drug addition and video-optical contractility analysis was performed daily and contraction data was normalized to time control.
The EHT:ERC platform-cell combination was exposed to 100 µM doxorubicin (C) or 1 µM sunitinib (D) for up to 17.5 hr (C) or up to 8 days (D). CA is shown normalized to time controls.

R-PAT hiPSC-CMs [3] = test: CO:R-PAT contractility after 24 h exposure
Excerpt: We asked whether longer term exposure would affect contractility (Supplementary Figure 7).
Prolonged exposure detects NIs in 2D and 3D cultures of hiPSC-CMs. […] CA is shown normalized to time controls.

ERC18 hiPSC-CM EHTs [4] = test: Engineered heart tissue (EHT) contractility, ERC18 hiPSC-CMs; format: cell-based, human; conditions: for changes in CA on the EHT platform: one range given for three NE drugs incorrectly predicted as PIs, EHT: ERC18 per Table 1
Excerpt: as §1, §2, §3, §4

R-PAT hiPSC-CMs [5] = test: CellOPTIQ (CO) contractility, R-PAT hiPSC-CM 2D monolayers; format: cell-based, human; conditions: mean maximum measurable percentage change relative to baseline, at concentration of column Conc μM or cell superscript
Method: Manufacturer instructions were followed for the commercial hiPSC lines. […] The same plates were used for R-PAT hiPSC-CMs, which were seeded at 40 000 cells/well and maintained until days 20 and 21 of differentiation before use.
hiPSC-CMs in 96-well plate were transiently loaded in 50 µl/well of SFM containing FluoVolt (1:200 part B, 1:2000 part A; Life Tech, F10488) for 20 min at 37°C and 5% CO2. After incubation, the medium was replaced with 200 μl/well of SFM. Plates were then incubated at 37°C and 5% CO2 for 15 min before recording, which were made using a ×40 (NAO.6) objective at 10 KHz. […] Baselines and drug addition were as described for the TTM system. Electrophysiology data were analyzed using CellOPTIQ proprietary software of Clyde Biosciences and were normalized to a maximum amplitude of 1 and minimum of 0 to standardize height for comparison of traces created in OriginPro (OriginLab version 7.5). Contractility data were analyzed based on pixel displacement using an ImageJ plug-in. This plug-in uses a sum of absolute differences algorithm.

[6] = isolated cardiomyocytes/heart muscles, Refs of Supplementary Table 1
[7] = EHT: R-PAT, mean maximum measurable percentage change relative to baseline, at concentration of column Conc μM or cell superscript
[8] = EHT: ERC18, mean maximum measurable percentage change relative to baseline, at concentration of column Conc μM or cell superscript

Row | Structure (SMILES) | Expected effect on contractility in isolated cardiomyocytes/heart muscles (cardiac contractility; [6]) | EC50 (cardiac contractility; [6]) [µM] | Expected cardiac effects in vivo (heart) | FTPC [1] [µM] | electrophysiology after 30 min exposure (hiPSC-CMs) | FPTC (free plasma therapeutic concentration) [1] [µM] | effect of exposure to the highest concentration for 24 h (R-PAT hiPSC-CMs [3]) | changes in CA on the EHT platform (ERC18 hiPSC-CM EHTs [4]) | other results
1 | COC(=O)N1CCN(Cc2cccc(NC(=O)Nc3ccc(C)nc3)c2F)CC1 [Omecamtiv mecarbil] | PI, NCl, NL, diastolic shortening (dog myocytes) | 1 | PI, prolonged syst. ejection time, small decrease in heart rate | 0.05 to 0.42 |  |  |  |  | increased CT (R-PAT hiPSC-CM EHTs; hiPSC-CMs configured as 3D EHTs, blinded phase, without convincing evidence for increased CA): approximately +40%
2 | CCN(CC)CCNC(=O)c1c(C)[nH]c(/C=C2\C(=O)Nc3ccc(F)cc32)c1C [Sunitinib] |  |  | NI, NC at high doses, chronic cardiotox | 0.003 | altered electrophysiology | 0.003 | loss of contraction and cell death |  | CA over a 7-day period (ERC18 hiPSC-CM EHTs [2]; 1 µM sunitinib, normalized to time controls): decline in CA; IC50 (cardiac contractility; negative inotropy, isolated cardiomyocytes/heart muscles, Refs of Supplementary Table 1, read-out: Expected effect on contractility in isolated cardiomyocytes/heart muscles, IC50): 10 µM
3 | CCCCNC(=O)NS(=O)(=O)c1ccc(C)cc1 [Tolbutamide] | None (canine CM) or small PI (rabbit atria, rat heart) | ~30 | None or PI (dogs, men) |  |  |  |  | 19%–33 | 
4 | COc1cccc2c1C(=O)c1c(O)c3c(c(O)c1C2=O)C[C@@](O)(C(=O)CO)C[C@@H]3O[C@H]1C[C@H](N)[C@H](O)[C@H](C)O1 [Doxorubicin] | PI+NCl and reduced post-rest potentiation at 30 µM (GP), but strong NI at 1000 µM (GP, rat); rate-dependent |  | NI, time course of cardiotox dose-dependent | 1 to 2 | altered electrophysiology; also recorded: changes in electrophysiology | 1 to 2 | loss of contraction and cell death |  | time after which EHT contraction ceased (ERC18 hiPSC-CM EHTs [2]; 100 µM doxorubicin): 17.5 h; reported inotropic effects (cardiac contractility; ref Kim et al., 1980, Vanboxtel et al., 1978, Wang and Korth, 1995): transient positive inotropy is followed by robust negative inotropy at higher concentrations; inotropy trend with 24 h treatment (R-PAT hiPSC-CMs [3]; 1 to 30 µM, increased CA, decreased CT): trend of positive inotropy
5 | CC[C@H](C)C(=O)O[C@H]1C[C@H](O)C=C2C=C[C@H](C)[C@H](CC[C@@H](O)C[C@@H](O)CC(=O)O)[C@H]21 [Pravastatin] | None |  | None | 0.018 |  | 0.018 |  | 19%–33 | 
6 | C[C@H](N[C@@H](CCc1ccccc1)C(=O)O)C(=O)N1CCC[C@H]1C(=O)O [Enalaprilat] | None |  | None | 0.12 |  | 0.12 |  |  | CA (contraction amplitude) (R-PAT hiPSC-CMs [5]): +54%; CT (contraction time) (R-PAT hiPSC-CMs [5]): +20 ^10 µM %; RT (relaxation time) (R-PAT hiPSC-CMs [5]): +34%; CA (contraction amplitude) (R-PAT hiPSC-CM EHTs; [7]): +33%; CT (contraction time) (R-PAT hiPSC-CM EHTs; [7]): +5 ^1 µM %; RT (relaxation time) (R-PAT hiPSC-CM EHTs; [7]): −14%; changes in CA on the EHT platform (R-PAT hiPSC-CM EHTs; one range given for three NE drugs incorrectly predicted as PIs, EHT: R-PAT per Table 1): 19%–33; CA (contraction amplitude) (ERC18 hiPSC-CM EHTs [4]; [8]): +2 ^10 µM %; CT (contraction time) (ERC18 hiPSC-CM EHTs [4]; [8]): −3%; RT (relaxation time) (ERC18 hiPSC-CM EHTs [4]; [8]): −4%; inotropic effect via bradykinin B1 receptor activation (cardiac contractility; ACE inhibitors, ref Ignjatovic et al., 2002): positive inotropic effect
